# Measurements from patent publication US20190062684A1, “Microfluidic System for Reproducing Functional Units of Tissues and Organs In Vitro” (NORTIS, INC., priority 2012, published 2019).
# Tested on: vascular-cell tube (engineered from primary human microvascular endothelial cells)
smiles,measurement,value
O=C(O)c1ccccc1-c1c2cc(F)c(=O)cc-2oc2cc(O)c(F)cc12 [Oregon Green],average permeability through the vascular-cell tube wall,2.5e-05 cm/s
